Reference: US7579469B2, “Glucocorticoid mimetics, methods of making them, pharmaceutical compositions, and uses thereof” (Boehringer Ingelheim Pharmaceuticals, Inc., priority 2003, dated 2009)

Target: T1, human glucocorticoid receptor (GR) complex (Homo sapiens, UniProt P04150)
T1 construct: made in house; host or cells: insect expression system (baculovirus lysate)
T1 sequence (P04150 1-777): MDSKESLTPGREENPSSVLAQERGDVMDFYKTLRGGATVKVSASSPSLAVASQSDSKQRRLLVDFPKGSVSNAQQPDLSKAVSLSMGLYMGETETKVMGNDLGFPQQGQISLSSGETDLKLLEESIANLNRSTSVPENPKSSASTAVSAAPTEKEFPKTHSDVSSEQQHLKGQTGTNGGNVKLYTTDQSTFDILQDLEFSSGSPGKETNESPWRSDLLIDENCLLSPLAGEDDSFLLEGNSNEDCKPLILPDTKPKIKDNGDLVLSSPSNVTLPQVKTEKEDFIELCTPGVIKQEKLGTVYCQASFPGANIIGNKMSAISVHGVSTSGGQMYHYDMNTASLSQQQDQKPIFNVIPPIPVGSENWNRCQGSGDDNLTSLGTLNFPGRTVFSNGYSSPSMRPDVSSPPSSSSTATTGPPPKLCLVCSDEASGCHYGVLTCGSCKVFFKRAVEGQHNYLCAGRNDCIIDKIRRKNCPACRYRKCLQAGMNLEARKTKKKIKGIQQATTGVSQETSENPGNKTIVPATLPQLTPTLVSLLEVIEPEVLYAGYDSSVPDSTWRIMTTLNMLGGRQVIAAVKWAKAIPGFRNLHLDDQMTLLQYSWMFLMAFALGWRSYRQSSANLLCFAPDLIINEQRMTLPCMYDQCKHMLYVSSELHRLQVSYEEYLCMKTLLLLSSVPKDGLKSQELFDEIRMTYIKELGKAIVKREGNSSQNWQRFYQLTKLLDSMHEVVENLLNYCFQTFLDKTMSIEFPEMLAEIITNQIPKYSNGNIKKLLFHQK
Assay: Glucocorticoid receptor competitive binding assay (fluorescence polarization)
Details: competition with TAMRA-labeled dexamethasone
Experimental: Compounds of the invention were evaluated for binding to the steroid receptor by a fluorescence polarization competitive binding assay.
A. Glucocorticoid Receptor Competitive Binding Assay
Step 1. Characterization of the Fluorescent Probe
The wavelengths for maximum excitation and emission of the fluorescent probe should first be measured. An example of such a probe is rhodamine (TAMRA)-labeled dexamethasone.
The affinity of the probe for the steroid receptor was then determined in a titration experiment. The fluorescence polarization value of the probe in assay buffer was measured on an SLM-8100 fluorometer using the excitation and emission maximum values described above. Aliquots of expression vector lysate were added and fluorescence polarization was measured after each addition until no further change in polarization value was observed. Non-linear least squares regression analysis was used to calculate the dissociation constant of the probe from the polarization values obtained for lysate binding to the probe.
Step 2. Screening for Inhibitors of Probe Binding
This assay uses fluorescence polarization (FP) to quantitate the ability of test compounds to compete with tetramethyl rhodamine (TAMRA)-labeled dexamethasone for binding to a human glucocorticoid receptor (GR) complex prepared from an insect expression system. The assay buffer was: 10 mM TES, 50 mM KCl, 20 mM Na2MoO4.2H20, 1.5 mM EDTA, 0.04% w/v CHAPS, 10% v/v glycerol, 1 mM dithiothreitol, pH 7.4. Test compounds were dissolved to 1 mM in neat DMSO and then further diluted to 10× assay concentration in assay buffer supplemented with 10% v/v DMSO. Test compounds were serially diluted at 10× assay concentrations in 10% DMSO-containing buffer in 96-well polypropylene plates. Binding reaction mixtures were prepared in 96-well black Dynex microtiter plates by sequential addition of the following assay components to each well: 15 μL of 10× test compound solution, 85 μL of GR-containing baculovirus lysate diluted 1:170 in assay buffer, and 50 μL of 15 nM TAMRA-labeled dexamethasone. Positive controls were reaction mixtures containing no test compound; negative controls (blanks) were reaction mixtures containing 0.7 μM to 2 μM dexamethasone. […] IC50 values were determined by iterative non-linear curve fitting of the FP signal data to a 4-parameter logistic equation.

| SMILES | activity in the GR binding assay |
| --- | --- |
| CC(C)(CC(O)(Cn1ccc(=O)c2ccccc21)C(F)(F)F)c1cc(-c2ccccc2)ccc1O (stereo not drawn) [1-[2-Hydroxy-4-(4-hydroxybiphenyl-3-yl)-4-methyl-2-trifluoromethylpentyl]-1H-quinolin-4-one] | potent activity |
| CC(C)(CC(O)(Cn1ccc(=O)c2ccccc21)C(F)(F)F)c1cc(-c2cncnc2)ccc1O (stereo not drawn) | potent activity |
| COc1ccc(F)cc1C(C)(C)CC(O)(CN1CCSc2ccccc21)C(F)(F)F (stereo not drawn) [2-(2,3-Dihydrobenzo[1,4]thiazin-4-ylmethyl)-1,1,1-trifluoro-4-(5-fluoro-2-methoxyphenyl)-4-methylpentan-2-ol] | potent activity |
| CC1(CC(O)(Cn2ccc(=O)c3ccccc32)C(F)(F)F)CCOc2ccc(F)cc21 (stereo not drawn) [1-[3,3,3-Trifluoro-2-(6-fluoro-4-methylchroman-4-ylmethyl)-2-hydroxypropyl]-1H-quinolin-4-one] | potent activity |
| CC(C)(CC(O)(Cn1ccc(=O)c2ccccc21)C(F)(F)F)c1cccc2c1OCO2 (stereo not drawn) | potent activity |
| Cc1ccc(O)c(C(C)(C)CC(O)(Cn2ccc(=O)c3ccccc32)C(F)(F)F)c1 (stereo not drawn) [1-[2-Hydroxy-4-(2-hydroxy-5-methylphenyl)-4-methyl-2-trifluoromethylpentyl]-1H-quinolin-4-one] | potent activity |
| CCC(C)(CC(O)(Cn1ccc(=O)c2ccccc21)C(F)(F)F)c1ccccc1 (stereo not drawn) [1-(2-Hydroxy-4-methyl-4-phenyl-2-trifluoromethylhexyl)-1H-quinolin-4-one] | potent activity |
| COc1ccc(F)cc1C(C)(C)CC(C)(O)Cn1cc(C)c(=O)c(C)c1 (stereo not drawn) [1-[4-(5-Fluoro-2-methoxyphenyl)-2-hydroxy-2,4-dimethylpentyl]-3,5-dimethyl-1H-pyridin-4-one] | potent activity |
| CC(C)(CC(O)(Cn1ccc(=O)c2ccccc21)C(F)(F)F)c1cccc(-c2ccccc2)c1 (stereo not drawn) [1-(4-Biphenyl-3-yl-2-hydroxy-4-methyl-2-trifluoromethylpentyl)-H-quinolin-4-one] | potent activity |
| COc1ccc(F)cc1C(C)(C)CC(O)(CN1CCN(C)c2ccccc21)C(F)(F)F (stereo not drawn) [1,1,1-Trifluoro-4-(5-fluoro-2-methoxyphenyl)-4-methyl-2-(4-methyl-3,4-dihydro-2H-quinoxalin-1-ylmethyl)pentan-2-ol] | potent activity |
| CSc1cc2c(c(C(C)(C)CC(O)(Cn3ccc(=O)c4ccccc43)C(F)(F)F)c1)OCC2 (stereo not drawn) [1-[2-Hydroxy-4-methyl-4-(5-methylsulfanyl-2,3-dihydrobenzofuran-7-yl)-2-trifluoromethylpentyl]-1H-quinolin-4-one] | potent activity |
| COc1ccc(F)cc1C(C)(C)CC(O)(CN1CC(C)N(C=O)C(C)C1)C(F)(F)F (stereo not drawn) [4-[4-(5-Fluoro-2-methoxyphenyl)-2-hydroxy-4-methyl-2-trifluoromethylpentyl]-2,6-dimethylpiperazine-1-carbaldehyde] | potent activity |
| Cc1ccc(F)cc1C(C)(C)CC(O)(Cn1ccc(=O)c2ccccc21)C(F)(F)F (stereo not drawn) | potent activity |
| CCOc1cccc(C(C)(C)CC(O)(Cn2ccc(=O)c3ccccc32)C(F)(F)F)c1 (stereo not drawn) | potent activity |
| COc1ccc(-c2ccccc2)cc1C(C)(C)CC(O)(Cn1ccc(=O)c2ccccc21)C(F)(F)F (stereo not drawn) [1-[2-Hydroxy-4-(4-methoxybiphenyl-3-yl)-4-methyl-2-trifluoromethylpentyl]-1H-quinolin-4-one] | potent activity |
| COc1ccc(F)cc1C(C)(C)CC(O)(Cn1ccc(=O)c2ccc(Cl)cc21)C(F)(F)F (stereo not drawn) [7-Chloro-1-[4-(5-fluoro-2-methoxyphenyl)-2-hydroxy-4-methyl-2-trifluoromethylpentyl]-1H-quinolin-4-one] | potent activity |
| CC(C)(CC(O)(Cn1ccc(=O)c2ccccc21)C(F)(F)F)c1cc(Br)ccc1O (stereo not drawn) [1-[4-(5-Bromo-2-hydroxyphenyl)-2-hydroxy-4-methyl-2-trifluoromethylpentyl]-1H-quinolin-4-one] | potent activity |
| CC(C)(CC(O)(Cn1ccc(=O)c2ccccc21)C(F)(F)F)c1cccc(CO)c1 (stereo not drawn) | potent activity |
| COc1ccc(CO)cc1C(C)(C)CC(O)(Cn1ccc(=O)c2ccccc21)C(F)(F)F (stereo not drawn) [1-[2-Hydroxy-4-(5-hydroxymethyl-2-methoxyphenyl)-4-methyl-2-trifluoromethylpentyl]-1H-quinolin-4-one] | potent activity |
| CC(C)(CC(O)(Cn1ccc(=O)c2cccc(F)c21)C(F)(F)F)c1cc(F)ccc1O (stereo not drawn) [8-Fluoro-1-[4-(5-fluoro-2-hydroxyphenyl)-2-hydroxy-4-methyl-2-trifluoromethylpentyl]-1H-quinolin-4-one] | potent activity |
| COc1cccc(C(C)(C)CC(O)(Cn2ccc(=O)c3ccccc32)C(F)(F)F)c1 (stereo not drawn) [1-[2-Hydroxy-4-(3-methoxyphenyl)-4-methyl-2-trifluoromethylpentyl]-1H-quinolin-4-one] | potent activity |
| Cc1noc(C)c1-c1cccc(C(C)(C)CC(O)(Cn2ccc(=O)c3ccccc32)C(F)(F)F)c1 (stereo not drawn) [1-{4-[3-(3,5-Dimethylisoxazol-4-yl)phenyl]-2-hydroxy-4-methyl-2-trifluoromethylpentyl}-1H-quinolin-4-one] | potent activity |
| CC(=O)c1ccc(O)c(C(C)(C)CC(O)(Cn2ccc(=O)c3ccccc32)C(F)(F)F)c1 (stereo not drawn) | potent activity |
| CC(C)(CC(O)(Cn1ccc(=O)c2ccccc21)C(F)(F)F)c1cccc(Br)c1 (stereo not drawn) [1-[4-(3-Bromophenyl)-2-hydroxy-4-methyl-2-trifluoromethylpentyl]-1H-quinolin-4-one] | potent activity |
| COc1ccc(C(C)(C)CC(O)(Cn2ccc(=O)c3ccccc32)C(F)(F)F)cc1F (stereo not drawn) [1-[4-(3-Fluoro-4-methoxyphenyl)-2-hydroxy-4-methyl-2-trifluoromethylpentyl]-1H-quinolin-4-one] | potent activity |
| CC(C)(CC(O)(Cn1ccc(=O)c2ccccc21)C(F)(F)F)c1ccc(F)cc1 (stereo not drawn) [1-[4-(4-Fluorophenyl)-2-hydroxy-4-methyl-2-trifluoromethylpentyl]-1H-quinolin-4-one] | potent activity |
| COc1ccc(F)cc1C(C)(C)CC(O)(CN1CC[S+]([O-])c2ccccc21)C(F)(F)F (stereo not drawn) [1,1,1-Trifluoro-4-(5-fluoro-2-methoxyphenyl)-4-methyl-2-(1-oxo-2,3-dihydro-1H-1λ^4-benzo[1,4]thiazin-4-ylmethyl)pentan-2-ol] | potent activity |
| CC(C)(CC(O)(Cn1ccc(=O)c2ccccc21)C(F)(F)F)c1cc(-c2ccsc2)ccc1O (stereo not drawn) [1-[2-Hydroxy-4-(2-hydroxy-5-thiophen-3-ylphenyl)-4-methyl-2-trifluoromethylpentyl]-1H-quinolin-4-one] | potent activity |
| CC(C)(CC(O)(Cn1ccc(=O)c2ccccc21)C(F)(F)F)c1cccc(O)c1 (stereo not drawn) [1-[2-Hydroxy-4-(3-hydroxyphenyl)-4-methyl-2-trifluoromethylpentyl]-1H-quinolin-4-one] | potent activity |
| Cc1ccc(C(C)(C)CC(O)(Cn2ccc(=O)c3ccccc32)C(F)(F)F)c(C)c1 (stereo not drawn) | potent activity |
